# Test results from article PMC6100557, “Quinazolinone-Amino Acid Hybrids as Dual Inhibitors of EGFR Kinase and Tubulin Polymerization” (Molecules : A Journal of Synthetic Chemistry and Natural …, 2018).
# Entries after “also recorded” stand apart in the source; their conditions may differ. Like-named read-outs stand apart in the source and are kept apart here.
# Assays:
# [1] = test system: MCF-7; assay: In vitro cytotoxic screening (MTT assay), MCF-7; assay type: cell-based; conditions: Homo sapiens, read-out: IC50 (µM) MCF-7
# Description: (§1) Cells were cultured using reported culture media, incubated for 24 h, treated with different concentrations of tested derivatives and incubated for 48 h. MTT was added to extract the color, which was then measured by ELISA [12].
# [2] = test system: MDA-MBA-231; assay: In vitro cytotoxic screening (MTT assay), MDA-MBA-231; assay type: cell-based; conditions: read-out: IC50 (µM) MDA-MBA-231
# Description: as §1
# [3] = test system: MCF-7 and MDA-MBA-231 cells; assay: Cytotoxic screening on the two cell lines, selectivity MCF-7 versus MDA-MBA-231; assay type: cell-based; conditions: for Selectivity Indices S1: S1 = IC50 (MCF-7)/IC50 (MDA-MBA-231); for Cell Line (type of selectivity): S1 > S2: more selective to MDA-MBA-231, S2 > S1: more selective to MCF-7; for Selectivity Indices S2: S2 = IC50 (MDA-MBA-231)/IC50 (MCF-7)
# Description: as §1
# [4] = target: T1, porcine tubulin protein (Sus scrofa, UniProt P02550+P02554); assay: Tubulin polymerization inhibition assay (CytoDYNAMIX Screen kit); assay type: biochemical; conditions: absorbance 340 nm, 30 min, 37 °C
# T1 construct: purchased Cytoskeleton Inc. BK006P
# Description: Cold porcine tubulin protein (>99% purity) was added to a G-PEM buffer (80 mM PIPES, 2 mM MgCl2, 0.5 mM EGTA, 1 mM GTP, pH 6.9) containing 15% glycerol with or without the identified compounds. […] The absorbance was monitored every minute for 30 min at 340 nm [16, 23].
# [5] = target: EGFR kinase (Homo sapiens, UniProt P00533); assay: EGFR inhibition assay (HTScan EGFR kinase assay kit)
# Description: High tech HTScan EGFR kinase assay kits (Cell Signaling Technology, Danvers, MA, USA) were used to measure EGFR kinase activity. The assay was achieved following the manufacturers’ instructions and reported procedures [16, 23].
# [6] = MCF7, MTT assay, 48 h incubation, mean ± SD
# [7] = MTT assay, 48 h incubation, mean ± SD
# EGFR kinase, sequence (P00533 672-1210 limits assumed): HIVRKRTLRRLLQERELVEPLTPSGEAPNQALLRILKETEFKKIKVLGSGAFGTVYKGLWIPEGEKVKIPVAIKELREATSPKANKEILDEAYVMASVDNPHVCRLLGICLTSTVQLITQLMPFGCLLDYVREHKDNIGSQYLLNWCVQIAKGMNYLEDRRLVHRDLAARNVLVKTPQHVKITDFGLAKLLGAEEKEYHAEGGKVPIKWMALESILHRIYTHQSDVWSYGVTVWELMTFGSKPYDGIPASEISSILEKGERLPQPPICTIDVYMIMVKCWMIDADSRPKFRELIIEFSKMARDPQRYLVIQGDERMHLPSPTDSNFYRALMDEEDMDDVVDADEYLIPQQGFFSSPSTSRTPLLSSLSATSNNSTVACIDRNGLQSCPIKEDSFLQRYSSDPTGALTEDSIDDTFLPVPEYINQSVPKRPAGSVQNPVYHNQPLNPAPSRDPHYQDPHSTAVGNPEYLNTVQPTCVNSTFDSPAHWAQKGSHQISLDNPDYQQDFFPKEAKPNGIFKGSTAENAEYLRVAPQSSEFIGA
# T1 sequence (P02550 whole entry): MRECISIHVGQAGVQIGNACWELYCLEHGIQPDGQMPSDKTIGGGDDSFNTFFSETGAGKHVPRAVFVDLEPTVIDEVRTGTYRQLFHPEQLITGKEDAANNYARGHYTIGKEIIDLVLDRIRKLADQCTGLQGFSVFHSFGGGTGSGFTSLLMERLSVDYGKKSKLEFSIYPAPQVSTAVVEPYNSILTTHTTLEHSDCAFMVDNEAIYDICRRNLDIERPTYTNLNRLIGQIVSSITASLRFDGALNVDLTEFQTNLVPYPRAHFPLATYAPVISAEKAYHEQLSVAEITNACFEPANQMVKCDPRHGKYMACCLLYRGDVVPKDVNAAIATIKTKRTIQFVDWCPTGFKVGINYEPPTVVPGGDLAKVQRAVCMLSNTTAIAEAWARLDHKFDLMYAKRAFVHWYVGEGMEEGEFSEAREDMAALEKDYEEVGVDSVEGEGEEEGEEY
# T1 sequence (P02554 whole entry): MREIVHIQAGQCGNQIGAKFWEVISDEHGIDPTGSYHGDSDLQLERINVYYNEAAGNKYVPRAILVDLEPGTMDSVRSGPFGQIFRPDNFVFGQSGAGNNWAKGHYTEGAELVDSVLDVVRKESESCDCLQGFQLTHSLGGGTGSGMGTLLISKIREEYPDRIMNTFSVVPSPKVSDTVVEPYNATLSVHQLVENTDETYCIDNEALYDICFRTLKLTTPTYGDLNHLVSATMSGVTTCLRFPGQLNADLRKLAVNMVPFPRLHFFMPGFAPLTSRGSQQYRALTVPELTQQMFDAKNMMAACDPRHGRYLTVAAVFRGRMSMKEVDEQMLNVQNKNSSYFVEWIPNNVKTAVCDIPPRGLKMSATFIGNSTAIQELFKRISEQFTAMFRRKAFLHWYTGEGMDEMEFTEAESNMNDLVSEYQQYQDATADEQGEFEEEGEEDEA
SMILES,melting point [°C],IC50 [4] [µM],IC50 [5] [µM],"IC50 [1, 6] [µM]","IC50 [2, 7] [µM]",Selectivity Indices S1 [3],Cell Line (type of selectivity) [3],Selectivity Indices S2 [3],"IC50 ([1]; MCF7, 48 h) [µM]",IC50 ([2]; 48 h) [µM]
"NCC(=O)Nn1c(-c2ccc(F)cc2)nc2ccc(F)cc2c1=O [A, 2-amino-N-(6-fluoro-2-(4-fluorophenyl)-4-oxoquinazolin-3(4H)-yl)acetamide]",236 to 238,–,–,25 ± 1.61,16.3 ± 1.21,1.53 ± 0.12,more selective to MDA-MBA-231 than MCF-7; also recorded: MDA-MBA-231 selective,0.65 ± 0.05,–,–
"N[C@@H](CCC(=O)O)C(=O)Nn1c(-c2ccc(F)cc2)nc2ccc(F)cc2c1=O [Compound E, (S)-4-(6-fluoro-2-(4-fluorophenyl)-4-oxoquinazolin-3(4H)-ylcarbamoyl)-4-aminobutanoic acid]",244 to 246,6.24,0.54538 ± 4e-05,12.4 ± 5.73,0.43 ± 0.02,28.93 ± 0.08,more selective to MDA-MBA-231 than MCF-7; also recorded: MDA-MBA-231 selective,0.03 ± 0.11,–,–
"N[C@@H](Cc1ccccc1)C(=O)Nn1c(-c2ccc(F)cc2)nc2ccc(F)cc2c1=O [Compound G, (S)-2-amino-N-(6-fluoro-2-(4-fluorophenyl)-4-oxoquinazolin-3(4H)-yl)-3-phenylpropanamide]",245 to 247,–,0.16397 ± 7e-05,0.44 ± 0.01,24.7 ± 1.7,0.02 ± 0.07,more selective to MCF-7 than MDA-MBA-231; also recorded: MCF-7 selective,56.07 ± 0.15,–,–
"CCC(C)[C@H](N)C(=O)Nn1c(-c2ccc(F)cc2)nc2ccc(F)cc2c1=O (stereo partly drawn) [D, (2S)-2-amino-N-(6-fluoro-2-(4-fluorophenyl)-4-oxoquinazolin-3(4H)-yl)-3-methylpentanamide]",248 to 250,–,–,11.3 ± 1.25,7.49 ± 0.42,1.51 ± 0.24,more selective to MDA-MBA-231 than MCF-7; also recorded: MDA-MBA-231 selective,0.66 ± 0.17,–,–
"C#Cc1cccc(Nc2ncnc3cc(OCCOC)c(OCCOC)cc23)c1 [Erlotinib, erlotinib, reference compound]",–,–,–,–,–,–,–,–,1.14,2.55 ± 0.19
"O=C(Nn1c(-c2ccc(F)cc2)nc2ccc(F)cc2c1=O)C1CCCN1 (centres unmarked) [H, N-(6-fluoro-2-(4-fluorophenyl)-4-oxoquinazolin-3(4H)-yl)pyrrolidine-2-carboxamide]",235 to 237,–,–,1.28 ± 0.03,12 ± 1.33,0.11 ± 0.23,more selective to MCF-7 than MDA-MBA-231; also recorded: MCF-7 selective,9.34 ± 0.02,–,–

# Second part, led by results:
melting point [°C],IC50 [4] [µM],IC50 [5] [µM],SMILES,"IC50 [1, 6] [µM]","IC50 [2, 7] [µM]",Selectivity Indices S1 [3],Cell Line (type of selectivity) [3],Selectivity Indices S2 [3],"IC50 ([1]; MCF7, 48 h) [µM]",IC50 ([2]; 48 h) [µM]
242 to 244,–,–,"CC(C)[C@H](N)C(=O)Nn1c(-c2ccc(F)cc2)nc2ccc(F)cc2c1=O [C, (S)-2-amino-N-(6-fluoro-2-(4-fluorophenyl)-4-oxoquinazolin-3(4H)-yl)-3-methylbutanamide]",1.16 ± 0.05,3.45 ± 0.21,0.34 ± 0.18,more selective to MCF-7 than MDA-MBA-231; also recorded: MCF-7 selective,2.98 ± 0.71,–,–
238 to 240,–,–,"C[C@H](N)C(=O)Nn1c(-c2ccc(F)cc2)nc2ccc(F)cc2c1=O [Compound B, (S)-2-amino-N-(6-fluoro-2-(4-fluorophenyl)-4-oxoquinazolin-3(4H)-yl)propanamide]",68.5 ± 3.27,42.9 ± 2.64,1.59 ± 0.05,more selective to MDA-MBA-231 than MCF-7; also recorded: MDA-MBA-231 selective,0.63 ± 0.23,–,–
220 to 222,–,–,"N[C@H](CS)C(=O)Nn1c(-c2ccc(F)cc2)nc2ccc(F)cc2c1=O [F, (S)-2-amino-N-(6-fluoro-2-(4-fluorophenyl)-4-oxoquinazolin-3(4H)-yl)-3-mercaptopropanamide]",1.93 ± 0.08,12.5 ± 5.88,0.15 ± 0.17,more selective to MCF-7 than MDA-MBA-231; also recorded: MCF-7 selective,6.46 ± 0.04,–,–
